Data published in patent US4820834A, “Benzodiazepine analogs” (priority 1987, dated 1989).
Read-outs that look alike come from different tables or passages of the source.

Experiments:
[1] = molecular target: T1, CCK receptor (brain, cerebral cortex) (Cavia porcellus, UniProt H0VZC5); experiment: biochemical; assay type: binding, Male Hartley guinea pigs
T1 construct: Cerebral cortex was dissected and used as a receptor source; from tissue; host or cells: guinea pig cerebral cortex membranes (male Hartley)
T1 sequence (H0VZC5 1-426): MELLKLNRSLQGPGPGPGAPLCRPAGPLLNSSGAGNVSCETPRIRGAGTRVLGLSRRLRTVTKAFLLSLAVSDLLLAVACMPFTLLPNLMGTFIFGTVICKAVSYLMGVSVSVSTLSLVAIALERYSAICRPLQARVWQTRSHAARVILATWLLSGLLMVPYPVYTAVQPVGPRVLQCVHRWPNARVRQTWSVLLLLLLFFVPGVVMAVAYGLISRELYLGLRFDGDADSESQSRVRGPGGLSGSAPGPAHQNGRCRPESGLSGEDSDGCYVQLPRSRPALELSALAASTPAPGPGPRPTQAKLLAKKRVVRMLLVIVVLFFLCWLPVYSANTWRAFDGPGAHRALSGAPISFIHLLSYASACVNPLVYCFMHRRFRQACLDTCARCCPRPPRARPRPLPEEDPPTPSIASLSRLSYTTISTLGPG
Method: 2. CCK Recepto Binding (Brain)
CCK-33 was radiolabeled and the binding was Performed according to the description for the Pancreas method with modifications according to Saito et al., J. Neurochem.
Cerebral cortex was dissected and used as a receptor source. Each gram of fresh guinea pig brain tissue was homogenized in 10 ml of Tris/Trizma buffer with a Brinkman polytron PT-10. The homogenates were centrifuged at 42,000 g for 15 minutes. Pellets were resuspended in Tris Buffer, centrifuged as above and resuspended in 200 volumes of binding assay buffer (10 mM N-2-hydroxyethyl-piperazine-N'-2-ethane sulfonic acid (HEPES), 5 mM MgCl2, 0.25 mg/ml bacitracin, 1 mM ethylene glycol-bis-(β-aminoethylether-N,N'-tetraacetic acid) (EGTA), and 0.4% bovine serum albumin (BSA)). […] All assays were run in duplicate or triplicate. The reaction mixtures were incubated at 25° C. for 2 hours and centrifuged in a Beckman Microfuge (4 minutes) immediately after adding 1 ml of ice-cold incubation buffer. The supernatant was aspirated and discarded, pellets were counted with a Beckman gamma 5000.

[2] = molecular target: T2, Gastrin receptor (gastric glands) (Cavia porcellus, UniProt H0VZC5); experiment: Gastrin Receptor Binding in Guinea Pig Gastric Glands; design: species or system guinea pig (male Hartley)
T2 construct: The washed guinea pig gastric glands prepared as above were resuspended; from tissue; host or cells: guinea pig gastric mucosal glands (male Hartley)
T2 sequence (H0VZC5 1-426): T1 sequence (H0VZC5 1-426)

[3] = IC50 ^125 I-CCK Brain, guinea pig cerebral cortex, ^125 I-CCK-33, 25° C., 2 hours
[4] = IC50 ^125 I-Gastrin Gastric Glands, 25° C., 30 minutes
[5] = ^125 I-gastrin, 25° C., 30 minutes, read-out: IC50 ^125 I-Gastrin Gastric Glands

SMILES	IC50 [1, 3] [µM]	IC50 [2, 4] [µM]	other results
O=C(NC1N=C(c2ccccc2)c2ccccc2NC1=O)c1c[nH]c2ccccc12 (racemic) [Example 109, 1,3-Dihydro-3-(RS)-(3-indolecarbonylamino)-5-phenyl-2H-1,4-benzodiazepin-2-one]	8.4	18	–
O=C(Cc1cccc2sccc12)NC1N=C(c2ccccc2F)c2ccccc2NC1=O (racemic) [Example 110, 1,3-Dihydro-3-(RS)-(4-thianaPhtheneacetyl)amino-5-(2-fluorophenyl)-2H-1,4-benzodiazepin-2-one]	3.3	3.9	–
O=C(O)CN1C(=O)C(NC(=O)c2cc3ccccc3[nH]2)N=C(c2ccccc2F)c2ccccc21 (racemic) [Example 113, 1-Carboxymethyl-1,3-dihydro-5-(2-fluorophenyl)-3(RS)-(2-indolecarbonylamino)-2H-1,4-benzodiazepin-2-one]	5.6	0.39	–
O=C(NC1N=C(c2ccccc2F)c2ccccc2NC1=O)c1cc2cc(F)ccc2[nH]1 (racemic) [Example 114, 1,3-Dihydro-3-(RS)-(5-fluoroindole-2-carbonylamino)-5-(2-fluorophenyl)-2H-1,4-benzodiazepin-2-one]	12	4.8	–
O=C(NC1N=C(c2ccccc2F)c2ccccc2NC1=O)c1cc2cc(Cl)ccc2[nH]1 (racemic) [Example 118, 1,3-Dihydro-3-(RS)-(5-Chloroindole-2-carbonylamino)-5-(2-fluorophenyl)-2H-1,4-benzodiazepin-2-one]	38	> 10	–
CN(C(=O)c1cc2ccccc2[nH]1)C1N=C(c2ccccc2)c2ccccc2NC1=O (racemic) [Example 119, 3-(RS)-[N-(2-indolecarbonyl)-N-methylamino]-1,3-dihydro-5-phenyl-2H-1,4-benzodiazepin-2-one]	33	> 10	–
O=C(NC1N=C(c2ccccc2F)c2ccccc2NC1=O)c1cc2cc(Br)ccc2[nH]1 (racemic) [Example 120, 1,3-Dihydro-3-(RS)-(5-Bromoindole-2-carbonylamino)-5-(2-fluorophenyl)-2H-1,4-benzodiazepin-2-one]	50	> 10	–
O=C(C=Cc1ccccc1)NC1N=C(c2ccccc2F)c2ccccc2NC1=O (racemic) [Example 121, 3-(RS)-Cinnamoylamino-1,3-dihydro-5-(2-fluorophenyl)-2H-1,4-benzodiazepin-2-one]	–	–	IC50 ([1]; guinea pig cerebral cortex, ^125 I-CCK-33, 25° C., 2 hours; read-out: IC50 ^125 I-CCK Brain): 5.5 µM; IC50 [2, 5]: 3.8 µM
O=C(NC1N=C(c2ccccc2F)c2ccccc2NC1=O)c1cc2cc(O)ccc2[nH]1 (racemic) [Example 122, 1,3-Dihydro-3-(RS)-(5-hydroxy-2-indolylcarbonyl)amino-5-(2-fluorophenyl)-2H-1,4-benzodiazepin-2-one]	16	29	–
COc1ccc2[nH]c(C(=O)NC3N=C(c4ccccc4F)c4ccccc4NC3=O)cc2c1 (racemic) [Example 126, 1,3-Dihydro-3-(RS)-(5-methoxyindole-2-carbonylamino)-5-(2-fluorophenyl)-2H-1,4-benzodiazepin-2-one]	29	> 10	–
Cn1c(C(=O)NC2N=C(c3ccccc3F)c3ccccc3NC2=O)cc2ccccc21 (racemic) [Example 127, 1,3-Dihydro-3-(RS)-(1-methylindole-2-carbonylamino)-5-(2-fluorophenyl)-2H-1,4-benzodiazepine-2-one]	7	6.3	–
O=C(NC1N=C(c2ccccc2F)c2ccccc2NC1=O)c1cc2ccccc2o1 (racemic) [Example 128, 1,3-Dihydro-5-(2-fluorophenyl)-3-(RS)-(2-benzofurancarbonylamino)-2H-1,4-benzodiazepin-2-one]	–	–	IC50 ([1]; read-out: IC50 ^125 I-CCK Brain; guinea pig cerebral cortex, ^125 I-CCK-33, 25° C., 2 hours): 32 µM; IC50 ([2]; read-out: IC50 ^125 I-Gastrin Gastric Glands, 25° C., 30 minutes): 11 µM
CCOC(=O)CN1C(=O)C(NC(=O)c2ccc(Cl)cc2)N=C(c2ccccc2F)c2ccccc21 (racemic) [Example 129, 1-Ethoxycarbonylmethyl-1,3-dihydro-3(RS)-(4-chloro-phenylcarbonyl)amino-5-(2-fluorophenyl)-2H-1,4-benzodiazepin-2-one]	1.9	0.69	–
O=C(NC1N=C(c2ccccc2)c2ccccc2NC1=O)c1ccc(Cl)cc1 (racemic) [Example 130, 1,3-Dihydro-3-(RS)-(4-chlorophenylcarbonyl)amino-5-phenyl-2H-1,4-benzodiazepin-2-one]	> 40	8.2	–
O=C(O)CN1C(=O)C(NC(=O)c2ccc(Cl)cc2)N=C(c2ccccc2F)c2ccccc21 (racemic) [Example 132, 1-Carboxymethyl-1,3-dihydro-3-(RS)-(4-chlorophenyl-carbonyl)amino-5-(2-fluorophenyl)-2H-1,4-benzodiazepin-2-one]	> 100	8.2	–
O=C(NC1N=C(c2ccccc2F)c2ccccc2NC1=O)c1ccc(C(F)(F)F)cc1 (racemic) [Example 134, 1,3-Dihydro-5-(2-fluorophenyl)-3-(RS)-(p-trifluoro-methylbenzoylamino)-2H-1,4-benzodiazepin-2-one]	40	9.5	–
Cc1ccc(C(=O)NC2N=C(c3ccccc3F)c3ccccc3NC2=O)cc1 (racemic) [Example 135, 1,3-Dihydro-5-(2-fluorophenyl)-3-(RS)-(p-methylbenzoylamino)-2H-1,4-benzodiazepin-2-one]	> 40	5	–
COc1ccc(C(=O)NC2N=C(c3ccccc3F)c3ccccc3NC2=O)cc1 (racemic) [Example 136, 1,3-Dihydro-5-(2-fluorophenyl)-3-(RS)-(p-methoxybenzoylamino)-2H-1,4-benzodiazepin-2-one]	> 40	5.4	–
O=C(NC1N=C(c2ccccc2)c2ccccc2NC1=O)c1ccccc1Cl (racemic) [Example 137, 3-(RS)-(o-Chlorobenzoylamino)-1,3-dihydro-5-phenyl-2H-1,4-benzodiazepin-2-one]	> 40	52	–
CN1C(=O)C(N(C)C(=O)c2ccccc2Cl)N=C(c2ccccc2)c2ccccc21 (racemic) [Example 138, 3-(RS)-(N-(o-Chlorobenzoyl)-N-methylamino)-1,3-dihydro-1-methyl-5-phenyl-2H-1,4-benzodiazepin-2-one]	100	> 100	–
CN1C(=O)C(NC(=O)c2ccccc2Cl)N=C(c2ccccc2)c2ccccc21 (racemic) [Example 139, 3-(RS)-(o-Chlorobenzoylamino)-1,3-dihydro-1-methyl-5-phenyl-2H-1,4-benzodiazepin-2-one]	> 100	–	IC50 [2, 5]: 30 µM
O=C(NC1N=C(c2ccccc2)c2ccccc2NC1=O)c1cccc(Cl)c1 (racemic) [Example 140, 3-(RS)-(m-Chlorobenzoylamino)-1,3-dihydro-5-phenyl-2H-1,4-benzodiazepin-2-one]	75	4.3	–
O=C(NC1N=C(c2ccccc2)c2ccccc2NC1=O)c1ccc(Cl)c(Cl)c1 (racemic) [Example 141, 3-(RS)-(3,4-Dichlorobenzoylamino)-1,3-dihydro-5-phenyl-2H-1,4-benzodiazepin-2-one]	> 40	25	–
CN1C(=O)C(NC(=O)c2ccc(Cl)cc2)[N+]([O-])=C(c2ccccc2F)c2ccccc21 (racemic) [Example 142, 3-(RS)-(p-Chlorobenzoylamino)-1,3-dihydro-5-(2'-fluorophenyl)-1-methyl-4-oxo-2H-1,4-benzodiazepin-2-one]	18	2.4	–
CSc1ccc(C(=O)NC2N=C(c3ccccc3)c3ccccc3NC2=O)cc1 (racemic) [Example 143, 1,3-Dihydro-5-Phenyl-3-(RS)-(4'-methylthiobenzoylamino)-2H-1,4-benzodiazepin-2-one]	23	8	–
O=C(NC1N=C(c2ccccc2)c2ccccc2NC1=O)c1ccc(F)cc1 (racemic) [Example 144, 1-3-Dihydro-3-(RS)-(4'-fluorobenzoylamino)-5-phenyl-2H-1,4-benzodiazeoin-2-one]	43	9.4	–
O=C(NC1N=C(c2ccccc2)c2ccccc2NC1=O)c1ccc(C(F)(F)F)cc1 (racemic) [Example 145, 1,3-Dihydro-5-Phenyl-3-(RS)-(4'-trifluoromethylbenzoylamino)-2H-1,4-benzodiazepin-2-one]	65	36	–
